Assay results: patent US9758494B2, “N-(oxazol-2-yl)-aryl-carboxylic acid amides and use thereof as herbicides” (BAYER CROPSCIENCE AG, priority 2012, dated 2017)

Columns and labels:
Assay type in all cases: in vivo
Pharbitis purpureum = assay: Post-emergence herbicidal action; settings: Dosage 20/ha (Table S)
Protocol: (§1) Seeds of monocotyledonous and dicotyledonous weed plants and crop plants are laid out in wood fiber pots in sandy loam, covered with soil and cultivated in a greenhouse under good growth conditions. 2 to 3 weeks after sowing, the test plants are treated at the one-leaf stage. The compounds according to the invention, formulated in the form of wettable powders (WP) or as emulsion concentrates (EC), are then sprayed onto the green parts of the plants in the form of an aqueous suspension or emulsion at a water application rate equating to 600 to 800 l/ha, with addition of 0.2% wetting agent. After the test plants have been left to stand in the greenhouse under optimal growth conditions for about 3 weeks, the action of the preparations is assessed visually in comparison to untreated controls (herbicidal action in percent (%): 100% activity=the plants have died, 0% activity=like control plants). Here, for example, compounds No. 1-163, 1-171, 1-172, 1-173, 1-254, 1-283, 1-284, 1-293, 1-294 and 1-334, at an application rate of 80 g/ha, have an activity of at least 80% against Abutilon theophrasti and Amaranthus retroflexus.
(§2) In the tables below, the properties of the compounds according to the invention are compared to those of the structurally most similar compounds known from WO 2012/028579 A1. These tests were carried out by the pre- and post-emergence method under the conditions mentioned under item 1 and item 2. Here, the herbicidal activity against various harmful plants and the damage of some important crop plants were compared at different dosages.

Oryza sativa (Rice) [1] = assay: Pre-emergence, damage of crop plants; settings: for damage of crop plants ORYZA: Dosage 320/ha (Table G)
From the text: (§3) Seeds of monocotyledonous and dicotyledonous weed plants and crop plants are laid out in wood-fiber pots in sandy loam and covered with soil. The compounds according to the invention, formulated in the form of wettable powders (WP) or as emulsion concentrates (EC), are then applied to the surface of the soil cover in the form of an aqueous suspension or emulsion at a water application rate equating to 600 to 800 l/ha, with addition of 0.2% wetting agent. After the treatment, the pots are placed in a greenhouse and kept under good growth conditions for the test plants. The damage to the test plants is assessed visually after a test period of 3 weeks by comparison with untreated controls (herbicidal activity in percent (%): 100% activity=the plants have died, 0% activity=like control plants). Here, for example, compounds No. 1-163, 1-171, 1-172, 1-283, 1-284, 1-294, 1-295, 1-334, 10-001 and 11-343, at an application rate of 320 g/ha, have an activity of at least 80% against Veronica persica.
as §2

Zea mays (Corn) [2] = assay: Pre-emergence, damage of crop plants; settings: Dosage 320/ha (Table G)
From the text: as §3, §2

[3] = test system: Brassica napus (Oilseed Rape); assay: Pre-emergence, damage of crop plants; settings: Dosage 320/ha (Table G)
From the text: as §3, §2

Oryza sativa (Rice) [4] = assay: Post-emergence, damage of crop plants; settings: for damage of crop plants, Crop plants ORYZA: Dosage 20/ha (Table S)
Protocol: as §1, §2

Zea mays (Corn) [5] = assay: Post-emergence, damage of crop plants; settings: for damage of crop plants, Crop plants ZEAMX: Dosage 20/ha (Table S)
Protocol: as §1, §2

[6] = test system: Triticum aestivum (Wheat); assay: Post-emergence, damage of crop plants; settings: Dosage 20/ha (Table S)
Protocol: as §1, §2

Stellaria media = assay: Post-emergence herbicidal action; settings: Dosage 5/ha (Table T)
Protocol: as §1, §2

Veronica persica = assay: Post-emergence herbicidal action; settings: Dosage 5/ha (Table T)
Protocol: as §1, §2

Echinochloa crus galli = assay: Pre-emergence herbicidal action; settings: Dosage 80/ha (Table H)
From the text: as §3, §2

Matricaria inodora = assay: Pre-emergence herbicidal action; settings: Dosage 80/ha (Table H)
From the text: as §3, §2

SMILES | herbicidal activity, Harmful plant PHBPU (Pharbitis purpureum) [%] | damage of crop plants ORYZA (Oryza sativa (Rice) [1]) [%] | damage of crop plants ZEAMX (Zea mays (Corn) [2]) [%] | damage of crop plants BRSNW [3] [%] | damage of crop plants, Crop plants ORYZA (Oryza sativa (Rice) [4]) [%] | damage of crop plants, Crop plants ZEAMX (Zea mays (Corn) [5]) [%] | damage of crop plants, Crop plants TRZAS [6] [%] | herbicidal activity against harmful plants STEME (Stellaria media) [%] | herbicidal activity against harmful plants VERPE (Veronica persica) [%] | Damage of ORYZA (Oryza sativa (Rice) [1]; 20 g/ha (Table I)) [%] | Damage of ORYZA (Oryza sativa (Rice) [1]; 80 g/ha (Table I)) [%] | damage of crop plants ORYZA (Oryza sativa (Rice) [4]; Dosage 80 g/ha (Table U)) [%] | damage of crop plants ZEAMX (Zea mays (Corn) [5]; Dosage 80 g/ha (Table U)) [%] | herbicidal activity against harmful plants ECGCG (Echinochloa crus galli) [%] | herbicidal activity against harmful plants MATIN (Matricaria inodora) [%]
C[S+]([O-])c1c(C(F)(F)F)ccc(C(=O)Nc2ncco2)c1Cl (centres unmarked) [1-294] | 70 | 30 | 0 | 20 | 0 | 0 | 0 |  |  |  |  |  |  |  | 
Cn1nnnc1NC(=O)c1ccc(C(F)(F)F)c([S+](C)[O-])c1Cl (centres unmarked) [WO 2012/028579, No. 4-639] | 40 | 90 | 40 | 90 | 60 | 80 | 100 |  |  |  |  |  |  |  | 
O=C(Nc1ncco1)c1ccc(C(F)(F)F)nc1Cl [10-1] |  |  |  |  |  |  |  | 40 | 90 | 0 | 0 | 0 | 0 | 70 | 90
Cn1ncnc1NC(=O)c1ccc(C(F)(F)F)nc1Cl [WO 2012/028579, No. 8-9] |  |  |  |  |  |  |  | 10 | 60 |  |  |  |  | 0 | 60
